Experimental data reported in patent publication US20100292316A1, “IMPROVED THERAPEUTIC METHODS AND COMPOSITIONS COMPRISING CHROMAN RING COMPOUNDS” (Research Development Foundation, priority 2007, published 2010).

Experiments:
TSP-1 = TSP-1 mRNA and protein levels in 66c1-4-GFP mouse mammary tumor cells; assay type: cell-based; settings: 66c1-4-GFP cells, 40 μM α-TEA
Akt = test: Western blot of phosphorylated Akt (Ser 473) and total Akt in prostate cancer cells; assay type: cell-based, human
Description: Previous studies have shown that α-TEA is an effective inducer of apoptosis in human prostate cancer cells (Anderson et al., 2004). Dose- and time-dependent pro-apoptotic effects of α-TEA in prostate cancer cells are mediated by Fas/FADD/caspase-8/tBid and Fas/Daxx/Ask1/JNK1/2/Bax, leading to activation of caspases-9 and -3. Thus, the Akt inhibiting activity of α-TEA was investigated in prostate cancer cells. Since phosphorylation of Akt at Ser 473 is required for its full activation (Cheng et al., 2005), we examined the phosphorylation status of Akt using an antibody that specifically recognizes Akt phosphorylated at Ser 473 in all three Akt isoforms (Upstate Cell Signaling Solutions (Charlottesville, Va.)). α-TEA decreased the levels of the phosphorylated forms of Akt. […] As verification that the decreases in phosphorylation status of Akt correlated with decreased kinase activity, the phosphorylation status of GSK3β, a downstream Akt target, was evaluated following α-TEA treatments. […] GAPDH levels were assayed with each immunoblot assay as a protein loading control.
Since Akt has three isoforms; namely, Akt1, Akt2, and Akt3, it was of interest to determine if α-TEA treatment was reducing the phosphorylated status of all three isoforms. Following α-TEA treatment the three Akt isoforms were immunoprecipitated with isoform specific antibodies, followed by western immunoblotting analyses using antibody specific for phospho-Akt. The protein levels of the isoforms were also determined. […] Treatment diminished the phosphorylation levels in all three Akt isoforms in both LNCaP and PC-3-GFP cells.
1×10^7 LNCaP or PC-3 3-GFP cells were treated with α-TEA and lysed in RIPA lysis buffer in the presence of protease inhibitors. […] Beads were washed 4 times with PBS and the proteins were released from the beads by boiling in Laemmli buffer for 5 min. Immunoprecipitated proteins were identified by SDS-PAGE followed by western immunoblot analyses.
Since Akt is activated, at least in part, by PI3K, we were interested to see if blockage of PI3K activity using the PI3K inhibitor LY294002 (Calbiochem-Novabiochem Corp. (San Diego, Calif.)) (Vlahos et al., 1994) would augment the apoptotic response induced by α-TEA.

PARP = PARP cleavage (p84) by Western blot, densitometry; assay type: cell-based, human; settings: LNCaP, 40 μM α-TEA 15 h
Description: Whole-cell protein extracts were prepared as described previously (Yu et al., 1999), and 50 μg of protein was loaded per lane, separated using SDS-PAGE on a 10-15% gel under reducing conditions, and electroblotted onto a nitrocellulose membrane ([…] Optitran BA-S-supported nitrocellulose; Schleicher and Schuell, Keene, N.H.). Equal loading was verified using GAPDH antibody. Primary rabbit antibodies with specificity for PARP and primary goat antibody with specificity for Arg were purchased from Santa Cruz Biotechnology (Santa Cruz, Calif.). Horseradish peroxidase conjugated goat anti-rabbit or horseradish goat anti-mouse secondary antibody was purchased from Jackson Immunoresearch Laboratory (West Grove, Pa.). Horseradish peroxidase-conjugated donkey anti-goat serum was purchased from Santa Cruz Biotechnology. Immune complexes were visualized using enhanced chemiluminescence detection (Pierce Chemical Co., Rockford, Ill.). Fold differences in level of chemiluminescence were determined by densitometric analyses.
Primary mouse antibody specific for p73 was purchased from IMGENEX (San Diego, Calif.). Primary mouse antibody specific for caspase 8 was purchased from Cell Signaling Technology (Beverly, Mass.). Horseradish peroxidase conjugated goat anti-rabbit or goat anti-mouse secondary antibodies were purchased from Jackson Immunoresearch Laboratory (West Grove, Pa.). Horseradish peroxidase-conjugated donkey […] serum was purchased from Santa Cruz Biotechnology. Immune complexes were visualized using enhanced chemiluminescence detection (Pierce Chemical Co., Rockford, Ill.). Fold differences in level of chemiluminescence were determined by densitometric analyses.

FOXO1 = FOXO1 phosphorylation and nuclear localization (Western blot, cell fractionation); assay type: cell-based, human; settings: LNCaP and PC-3-GFP cells
Description: The transcription factor FOXO1 is a downstream substrate of Akt in which phosphorylation by Akt prevents its pro-apoptotic actions (Woods et al., 2002). Since previous studies of α-TEA's mechanism of action in inducing apoptosis in cancer cells show a role for Fas signaling (Shun et al., 2004) and since FOXO1 has been proposed to be a transcriptional regulator of FasL (Ciechomska et al., 2003), it was of interest to investigate the effects of α-TEA on FOXO1 phosphorylation status and cellular location. […] FOXO1 is normally localized in the nucleus (Woods et al., 2002) and phosphorylation of FOXO1 by Akt at Ser 256 promotes the relocation of FOXO1 from the nucleus to the cytosol, thereby inhibiting its transcriptional activity (Greer et al., 2005). As expected, control LNCaP and PC-3-GFP cells had high levels of FOXO1 in the cytosol reflecting the constitutively activated state of Akt in these cells (FIG. 7B).
Plasmids encoding wild type FOXO1 (Flag-tagged FOXO1) and constitutively active FOXO1 (Flag-tagged FOXO1AAA) were generous gifts from Dr. Kun-Liang Guan (Tang et al., 1999). FOXO1 and phospho-FOXO1 antibodies were purchased from Cell Signaling Technology (Beverly, Mass.).
Preparation of cytoplasmic and nuclear extracts for the foregoing experiments was carried-out using methods that are well known in the art. […]

SMILES: Cc1c(C)c2c(c(C)c1OCC(=O)O)CC[C@@](C)(CCC[C@H](C)CCC[C@H](C)CCCC(C)C)O2 [α-TEA]
- peak TSP-1 mRNA levels, fold of VEH control (TSP-1; 6 h): 2.4 fold
- TSP-1 protein levels, fold of VEH control (TSP-1; 24 h): 7.8 fold
- phosphorylation levels of Akt1, Akt2, Akt3 isoforms (immunoprecipitation) (Akt; LNCaP and PC-3-GFP cells, 40 μM α-TEA, 24 h): markedly reduced
- effect on level of Akt protein expression (Akt; LNCaP and PC-3-GFP cells, any time point): no major effect
- inhibition of levels of endogenously phosphorylated Akt (Akt; LNCaP cells, 10 μM α-TEA and/or 10 μM LY294002): 40%
- reduction of phosphorylated forms of Akt (Akt; LNCaP cells, 40 μM α-TEA, 24 h): 90%
- inhibition of levels of endogenously phosphorylated Akt (Akt; PC-3-GFP cells, 20 μM α-TEA and/or 10 μM LY294002): 70%
- reduction of phosphorylated forms of Akt (Akt; PC-3-GFP cells, 40 μM α-TEA, 24 h): 70%
- PARP cleavage in comparison to empty vector control, cells overexpressing Flag-tagged wild type FOXO1 (PARP): 160%
- PARP cleavage in comparison to empty vector control, cells overexpressing constitutively active Flag-FOXO1 AAA (PARP): 230%
- FOXO1 nuclear localization (FOXO1; 40 μM α-TEA for 24 h): increase in FOXO1 levels in the nucleus
- phospho-FOXO1 levels (FOXO1; 40 μM α-TEA, 3-24 h, total protein unchanged): reduced in a time-dependent manner
